Data reported in patent US20240158446A1, “CYCLIC COMPOUND HAVING SELECTIVE INHIBITORY ACTION ON KRAS OVER HRAS AND NRAS” (CHUGAI SEIYAKU KABUSHIKI KAISHA, priority 2021, published 2024).

What was measured:
[1] = biological target: GDP-bound NRAS wild-type protein (Homo sapiens, UniProt P01111); experiment: Binding to NRAS by surface plasmon resonance (SPR), Single Cycle Kinetics; details: SPR; GDP-bound NRAS wild-type protein vs GDP-bound KRAS wild-type protein; KD ratio class
[2] = biological target: GDP-bound HRAS wild-type protein (Homo sapiens, UniProt P01112); experiment: Binding to HRAS by surface plasmon resonance (SPR), Single Cycle Kinetics; details: SPR; GDP-bound HRAS wild-type protein vs GDP-bound KRAS wild-type protein; KD ratio class
Sequence of GDP-bound HRAS wild-type protein (P01112 whole entry): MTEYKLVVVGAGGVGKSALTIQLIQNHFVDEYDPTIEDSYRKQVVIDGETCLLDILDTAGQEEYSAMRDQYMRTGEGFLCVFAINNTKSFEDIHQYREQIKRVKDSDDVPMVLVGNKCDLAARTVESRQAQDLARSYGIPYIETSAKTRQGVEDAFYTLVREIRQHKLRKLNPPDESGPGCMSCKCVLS

[3] = biological target: GDP-bound KRAS wild-type protein (Homo sapiens, UniProt P01116); experiment: Binding to KRAS by surface plasmon resonance (SPR), Single Cycle Kinetics; details: SPR, Single Cycle Kinetics, 1:1 binding model; GDP-bound KRAS wild-type protein; read-out: KRAS KD
Sequence of GDP-bound KRAS wild-type protein (P01116 whole entry): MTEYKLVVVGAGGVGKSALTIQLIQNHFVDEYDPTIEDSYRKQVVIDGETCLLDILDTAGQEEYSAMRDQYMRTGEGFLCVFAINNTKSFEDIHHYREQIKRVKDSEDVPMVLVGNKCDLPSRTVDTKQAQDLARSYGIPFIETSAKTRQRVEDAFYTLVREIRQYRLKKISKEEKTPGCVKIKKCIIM

[4] = tested on: human lung cancer strain NCI-H441;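 further: cell proliferation inhibition after four days measured by CellTiter-Glo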

Sequence of GDP-bound NRAS wild-type protein (P01111 whole entry): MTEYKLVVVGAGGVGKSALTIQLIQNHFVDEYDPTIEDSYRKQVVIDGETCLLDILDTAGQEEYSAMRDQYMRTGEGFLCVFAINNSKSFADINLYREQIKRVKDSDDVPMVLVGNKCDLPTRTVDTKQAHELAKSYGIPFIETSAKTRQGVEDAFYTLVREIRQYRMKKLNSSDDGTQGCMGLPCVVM

For `C=CC[C@H]1C(=O)N[C@@H]([C@@H](C)CC)C(=O)N(C)CC(=O)N(C)[C@H]2C/C=C\CCN(C2=O)[C@@H](CC2CCCCC2)C(=O)N(C)CC(=O)N[C@@H](CCc2cc(F)c(C(F)(F)F)c(F)c2)C(=O)N2C[C@H](OCC)C[C@H]2C(=O)NC2(CCC2)C(=O)N(C)[C@@H](C2CCCC2)C(=O)N(C)[C@H](C(=O)N(C)C)CC(=O)N1C` [PP1468, (2S,8S,12R,14S,20S,23S,27S,30S,36S,38Z)-27-allyl-2-(cyclohexylmethyl)-20-cyclopentyl-8-[2-[3,5-difluoro-4-(trifluoromethyl)phenyl]ethyl]-12-ethoxy-N,N,4,19,22,26,32,35-octamethyl-30-[(1S)-1-methylpropyl]-3,6,9,15,18,21,25,28,31,34,42-undecaoxo-spiro[1,4,7,10,16,19,22,26,29,32,35-undecazatricyclo[34.5.1.0^10,14]dotetracont-38-ene-17,1′-cyclobutane]-23-carboxamide], the “NRAS/KRAS (ratio of KD value for NRAS to KD value for KRAS)” value [1] was “A (a compound having 10 or more and less than 20 is denoted as A)”, the “HRAS/KRAS (ratio of KD value for HRAS to KD value for KRAS)” value [2] was “A (a compound having 10 or more and less than 20 is denoted as A)” and the Kd [3] was 0.12 nM. For the same compound, the IC50 [4] was 9.5 nM.
For `CCO[C@@H]1C[C@H]2C(=O)NC3(CCC3)C(=O)N(C)[C@@H](C3CCCC3)C(=O)N(C)[C@H](C(=O)N(C)C)CC(=O)N(C)[C@@H](CC3CCC3)C(=O)N[C@@H]([C@@H](C)CC)C(=O)N(C)CC(=O)N(C)[C@H]3C/C=C\CCN(C3=O)[C@@H](CC3CCCCC3)C(=O)N(C)CC(=O)N[C@@H](CCc3cc(F)c(C(F)(F)F)c(F)c3)C(=O)N2C1` [PP1469], the “NRAS/KRAS (ratio of KD value for NRAS to KD value for KRAS)” value [1] was “A (a compound having 10 or more and less than 20 is denoted as A)”, the “HRAS/KRAS (ratio of KD value for HRAS to KD value for KRAS)” value [2] was “A (a compound having 10 or more and less than 20 is denoted as A)” and the Kd [3] was 0.18 nM. For the same compound, the IC50 [4] was 22.2 nM.
For `CCO[C@@H]1C[C@H]2C(=O)NC3(CCCC3)C(=O)N(C)[C@@H](C3CCCC3)C(=O)N(C)[C@H](C(=O)N(C)C)CC(=O)N(C)[C@@H](C)C(=O)N[C@@H]([C@@H](C)CC)C(=O)N(C)CC(=O)N(C)[C@H]3C/C=C\CCN(C3=O)[C@@H](CC3CCCCC3)C(=O)N(C)CC(=O)N[C@@H](CCc3cc(F)c(C(F)(F)F)c(F)c3)C(=O)N2C1` [PP1470], the “NRAS/KRAS (ratio of KD value for NRAS to KD value for KRAS)” value [1] was “A (a compound having 10 or more and less than 20 is denoted as A)”, the “HRAS/KRAS (ratio of KD value for HRAS to KD value for KRAS)” value [2] was “A (a compound having 10 or more and less than 20 is denoted as A)” and the Kd [3] was 0.22 nM. For the same compound, the IC50 [4] was 111 nM.
`CC[C@H](C)[C@@H]1NC(=O)[C@H](CC)N(C)C(=O)C[C@@H](C(=O)N(C)C)N(C)C(=O)[C@H](C2CCCC2)N(C)C(=O)C2(CCC2)NC(=O)[C@@H]2C[C@H](C)CN2C(=O)[C@H](CCc2cc(F)c(C(F)(F)F)c(F)c2)NC(=O)CN(C)C(=O)[C@H](CC2CCCCC2)N2CC/C=C\C[C@@H](C2=O)N(C)C(=O)CN(C)C1=O` [PP1471] was tested, and the “NRAS/KRAS (ratio of KD value for NRAS to KD value for KRAS)” value [1] was “A (a compound having 10 or more and less than 20 is denoted as A)”, the “HRAS/KRAS (ratio of KD value for HRAS to KD value for KRAS)” value [2] was “A (a compound having 10 or more and less than 20 is denoted as A)” and the Kd [3] was 0.25 nM. The IC50 [4] was 48.2 nM.
`CCO[C@@H]1C[C@H]2C(=O)NC3(CCC3)C(=O)N(C)[C@@H](C3CCCC3)C(=O)N(C)[C@H](C(=O)N(C)C)CC(=O)N(C)[C@@H](CC3CCCC3)C(=O)N[C@@H]([C@@H](C)CC)C(=O)N(C)CC(=O)N(C)[C@H]3C/C=C\CCN(C3=O)[C@@H](CC3CCCCC3)C(=O)N(C)CC(=O)N[C@@H](CCc3cc(F)c(C(F)(F)F)c(F)c3)C(=O)N2C1` [PP1472, (2S,8S,12R,14S,20S,23S,27S,30S,36S,38Z)-2-(cyclohexylmethyl)-20-cyclopentyl-27-(cyclopentylmethyl)-8-[2-[3,5-difluoro-4-(trifluoromethyl)phenyl]ethyl]-12-ethoxy-N,N,4,19,22,26,32,35-octamethyl-30-[(1S)-1-methylpropyl]-3,6,9,15,18,21,25,28,31,34,42-undecaoxo-spiro[1,4,7,10,16,19,22,26,29,32,35-undecazatricyclo[34.5.1.0^10,14]dotetracont-38-ene-17,1′-cyclobutane]-23-carboxamide] was tested, and the “NRAS/KRAS (ratio of KD value for NRAS to KD value for KRAS)” value [1] was “A (a compound having 10 or more and less than 20 is denoted as A)”, the “HRAS/KRAS (ratio of KD value for HRAS to KD value for KRAS)” value [2] was “A (a compound having 10 or more and less than 20 is denoted as A)” and the Kd [3] was 0.14 nM. The IC50 [4] was 37.1 nM.
`CCO[C@@H]1C[C@H]2C(=O)NC3(CCCC3)C(=O)N(C)[C@@H](C3CCCC3)C(=O)N(C)[C@H](C(=O)N(C)C)CC(=O)N(C)[C@@H](CC(C)C)C(=O)N[C@@H]([C@@H](C)CC)C(=O)N(C)CC(=O)N(C)[C@H]3C/C=C\CCN(C3=O)[C@@H](CC3CCCCC3)C(=O)N(C)CC(=O)N[C@@H](CCc3cc(F)c(C(F)(F)F)c(F)c3)C(=O)N2C1` [PP1473] was tested, and the “NRAS/KRAS (ratio of KD value for NRAS to KD value for KRAS)” value [1] was “A (a compound having 10 or more and less than 20 is denoted as A)”, the “HRAS/KRAS (ratio of KD value for HRAS to KD value for KRAS)” value [2] was “A (a compound having 10 or more and less than 20 is denoted as A)” and the Kd [3] was 0.19 nM. The IC50 [4] was 36.6 nM.
`CCO[C@@H]1C[C@H]2C(=O)NC3(CCC3)C(=O)N(C)[C@@H](C3CCCC3)C(=O)N(C)[C@H](C(=O)N(C)C)CC(=O)N(C)[C@@H](CC(C)(C)C)C(=O)N[C@@H]([C@@H](C)CC)C(=O)N(C)CC(=O)N(C)[C@H]3C/C=C\CCN(C3=O)[C@@H](CC3CCCCC3)C(=O)N(C)CC(=O)N[C@@H](CCc3cc(F)c(C(F)(F)F)c(F)c3)C(=O)N2C1` [PP1474] was tested, and the “NRAS/KRAS (ratio of KD value for NRAS to KD value for KRAS)” value [1] was “A (a compound having 10 or more and less than 20 is denoted as A)”, the “HRAS/KRAS (ratio of KD value for HRAS to KD value for KRAS)” value [2] was “A (a compound having 10 or more and less than 20 is denoted as A)” and the Kd [3] was 0.23 nM. The IC50 [4] was 48.2 nM.
With `CC[C@H](C)[C@@H]1NC(=O)[C@H](CC)N(C)C(=O)C[C@@H](C(=O)N(C)C)N(C)C(=O)[C@H](C2CCCC2)N(C)C(=O)C2(CCC2)NC(=O)[C@@H]2CCCN2C(=O)[C@H](CCc2cc(F)c(C(F)(F)F)c(F)c2)NC(=O)CN(C)C(=O)[C@H](CC2CCCCC2)N2CC/C=C\C[C@@H](C2=O)N(C)C(=O)CN(C)C1=O` [PP1475] the “NRAS/KRAS (ratio of KD value for NRAS to KD value for KRAS)” value [1] was “A (a compound having 10 or more and less than 20 is denoted as A)”, the “HRAS/KRAS (ratio of KD value for HRAS to KD value for KRAS)” value [2] was “A (a compound having 10 or more and less than 20 is denoted as A)” and the Kd [3] was 0.55 nM. For the same compound, the IC50 [4] was 48.9 nM.
In the case of `CCO[C@@H]1C[C@H]2C(=O)NC3(CCC3)C(=O)N(C)[C@@H](C3CCCC3)C(=O)N(C)[C@H](C(=O)N(C)C)CC(=O)N(C)[C@@H](CC3CC3)C(=O)N[C@@H]([C@@H](C)CC)C(=O)N(C)CC(=O)N(C)[C@H]3C/C=C\CCN(C3=O)[C@@H](Cc3ccc(F)cc3C)C(=O)N(C)CC(=O)N[C@@H](CCc3ccc(Cl)c(Cl)c3)C(=O)N2C1` [PP1476], the “NRAS/KRAS (ratio of KD value for NRAS to KD value for KRAS)” value [1] is reported as “A (a compound having 10 or more and less than 20 is denoted as A)”, the “HRAS/KRAS (ratio of KD value for HRAS to KD value for KRAS)” value [2] is reported as “B (a compound having 3 or more and less than 10 is denoted as B)” and the Kd [3] is reported as 1 nM. For the same compound, the IC50 [4] was 216 nM.
With `CCO[C@@H]1C[C@H]2C(=O)NC3(CCC3)C(=O)N(C)[C@@H](C3CCCC3)C(=O)N(C)[C@H](C(=O)N(C)C)CC(=O)N(C)[C@@H](CC3CC3)C(=O)N[C@@H]([C@@H](C)CC)C(=O)N(C)CC(=O)N(C)[C@H]3C/C=C\CCN(C3=O)[C@@H](Cc3ccc(F)cc3C)C(=O)N(C)CC(=O)N[C@@H](CCc3cc(F)c(Cl)c(F)c3)C(=O)N2C1` [PP1477] the “NRAS/KRAS (ratio of KD value for NRAS to KD value for KRAS)” value [1] was “A (a compound having 10 or more and less than 20 is denoted as A)”, the “HRAS/KRAS (ratio of KD value for HRAS to KD value for KRAS)” value [2] was “B (a compound having 3 or more and less than 10 is denoted as B)” and the Kd [3] was 1.4 nM. For the same compound, the IC50 [4] was 309 nM.
